Entries after “also recorded” stand apart in the source; their conditions may differ. Where a SMILES comes first, the peptide text is derived from it. Bridges are numbered along the chain shown (N, C = ends).
Tested on: mock-transfected HEK293 cells
Experiment: Intracellular cAMP reporter assay, mock-transfected HEK293 cells (empty vector)
Type: cell-based, human
Details: CRE-luciferase, IBMX, ASTCC Fig 5F, ASTA and ASTC data not shown
Procedure: For intracellular cAMP measurements, cells were bathed in trypsin EDTA and collected, then suspended in fresh DMEM. Transfections with pRK5-ApimeAstC-R, pRK5-ApimeAstA-R or empty pRK5 vector were carried out in 15 ml Falcon tubes. Transfection medium for HEK293 cells was prepared using the Lipofectamine LTX kit (Invitrogen) with 2.5 ml Opti-MEM® (Gibco), 12.5 μl Plus™ Reagent and 4 μg of ApimeASTC-R (or ApimeASTA-R, or empty) expression construct, and 2 μg of CRE(6x)-Luc plasmid. The luciferase ORF, downstream of six tandem repeats of a cyclic AMP responsive element (CRE), in front of a minimum collate promoter, was used as a reporter gene (this reporter plasmid has been used by others)
We followed a previousy published protocol: HEK293 cells in Dulbecco's Modified Eagles Medium nutrient mixture F12-Ham (DMEM/F12, Sigma–Aldrich) supplemented with 10% heat-inactivated fetal bovine serum (Gibco), 100 IU/ml penicillin, 100 μg/ml streptomycin (Gibco) were maintained in an incubator at 37°C with constant supply of 5% CO2, until they reached 60–80% confluence. Cells were then bathed in trypsin EDTA (Gibco) until rounded. The flask was then tapped to loosen the cells, which were subsequently washed off with 5 ml DMEM/F12. The cells were gently centrifuged at 800 rpm for 5 minutes and carefully suspended in fresh DMEM, which was divided in two for transfection with receptor constructs or empty vectors. After 5 min at room temperature, 30 μl LTX was added. After an incubation period of 30 min at room temperature, the DNA/LTX mix was added to the cells. The cells were then aliquoted (100 μl per well) into a clear bottom 96-well plate (Greiner bio-one #655090) and incubated overnight (37°C, 5% CO2).
Prior to measuring cAMP, the cell medium was removed by carefully inverting the 96-well plate on filter paper and quickly replaced with 100 μl of DMEM/F12 without phenol red (Invitrogen), but containing 200 μM 3-isobutyl-1-methylxanthine (IBMX, Sigma–Aldrich) to prevent cAMP breakdown, as well as drugs to be tested. In each experiment, some wells were used to measure basal levels of cAMP in the cells (negative control), while others were used to measure cAMP levels in cells exposed to 10 μM forskolin analogue (NKH-477, Sigma Aldrich, positive control). […] All cells were incubated at 37°C and 5% CO2 for 3–4 h to allow transcription of the reporter gene before 100 μl of freshly reconstituted Steadylite Plus™ substrate (PerkinElmer) was added to each well. The 96-well plate was then placed in the dark for 15 min before light emission resulting from luciferase enzymatic activity was recorded. Measurements lasting 0.2 s/well were taken every 55 s for 10 cycles using a FLUOstar Omega microplate reader (BMG Labtech). Results were analyzed by means of the Omega software packages and further processed by Excel and GraphPad Prism softwares. In order to facilitate comparisons across experiments, bioluminescence levels are expressed relative to those in mock-transfected cells (transfected with the vector devoid of the receptor sequence) untreated with NKH-477, which were arbitrarily set at 100.
To test this prediction, we expressed the two receptors separately in HEK293 cells together with the luciferase reporter gene, downstream of the cAMP response element, CRE, but without exogenous G proteins.

SMILES | effect on cAMP levels (bioluminescence) in mock-transfected cells, in words | effect on cAMP levels (bioluminescence) in mock-transfected cells, in words (listed as ASTCC) | effect on cAMP levels (bioluminescence) in mock-transfected cells, in words (listed as ASTC)
CC(C)[C@@H]1NC(=O)[C@H](C)NC(=O)[C@H](CC(N)=O)NC(=O)[C@H](Cc2ccccc2)NC(=O)[C@H](Cc2ccc(O)cc2)NC(=O)[C@@H](NC(=O)[C@H](CCCNC(=N)N)NC(=O)[C@H](Cc2c[nH]c3ccccc23)NC(=O)[C@H](Cc2ccc(O)cc2)NC(=O)[C@@H](NC(=O)[C@H](CCCNC(=N)N)NC(=O)CNC(=O)[C@H](CCCCN)NC(=O)[C@H](C)NC(=O)[C@H](CCC(N)=O)NC(=O)CN)C(C)C)CSSC[C@@H](C(=O)N[C@@H](Cc2ccccc2)C(=O)O)NC(=O)[C@H]([C@@H](C)O)NC1=O [Apime-ASTCC] (H-GQAKGRVYWRCYFNAVTCF-OH; disulfide 11-18; N-terminus assumed) | dose-dependent response; also recorded: a similar response to this peptide was apparent also in mock-transfected cells | this occurred also in mock-transfected cells | –
CC(C)[C@@H]1NC(=O)[C@H](C)NC(=O)[C@H](CC(N)=O)NC(=O)[C@H](Cc2ccccc2)NC(=O)[C@H](C)NC(=O)[C@@H](NC(=O)[C@H](CCC(N)=O)NC(=O)[C@H](CCCCN)NC(=O)[C@H](Cc2c[nH]c3ccccc23)NC(=O)[C@H](Cc2ccc(O)cc2)NC(=O)[C@@H](N)CO)CSSC[C@@H](C(=O)N[C@@H](Cc2ccccc2)C(N)=O)NC(=O)[C@H](CO)NC1=O [Apime-ASTC] (H-SYWKQCAFNAVSCF-NH2; disulfide 6-13; N-terminus assumed) | No effect | – | failed to increase intracellular cAMP levels
